Active and inactive are the calls of the source. The rule behind the calls is not given here.
System: HT-22
Assay: Neuroprotective activity against glutamate induced cell death in mouse HT22 cells assessed as increase in cell viability at 1 to 5 uM after 24 hrs by MTT assay
Format: functional, cell-based

CC(=O)N[C@@H](CS)C(=O)O
Activity: Active
